Test results as given in patent publication US11198695B2, “Fused ring derivative having MGAT-2 inhibitory activity” (Shionogi & Co., Ltd., priority 2017, dated 2021).

Target: recombinant human MGAT2 (Homo sapiens (Human), UniProt Q3SYC2)
Assay: Measurement of human MGAT2 inhibitory activity
Type: biochemical
Settings: read-out: IC50 (concentration exhibiting 50% enzyme inhibition), Table 52
Procedure, shortened: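 Membrane fraction of Sf9 cells expressing N-terminally Flag-tagged full-length human MGAT2, incubated 1 h at room temperature in 100 mmol/L phosphate pH 7.4 with 2 mmol/L DTT. The substrate solution held 30 μmol/L 2-oleoylglycerol and 10 μmol/L oleoyl-CoA. Diolein product was quantified by RapidFire ESI Q-TOF MS against diolein-d5 internal standard; % inhibition was set relative to with/without-enzyme controls.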

recombinant human MGAT2, sequence (Q3SYC2 whole entry): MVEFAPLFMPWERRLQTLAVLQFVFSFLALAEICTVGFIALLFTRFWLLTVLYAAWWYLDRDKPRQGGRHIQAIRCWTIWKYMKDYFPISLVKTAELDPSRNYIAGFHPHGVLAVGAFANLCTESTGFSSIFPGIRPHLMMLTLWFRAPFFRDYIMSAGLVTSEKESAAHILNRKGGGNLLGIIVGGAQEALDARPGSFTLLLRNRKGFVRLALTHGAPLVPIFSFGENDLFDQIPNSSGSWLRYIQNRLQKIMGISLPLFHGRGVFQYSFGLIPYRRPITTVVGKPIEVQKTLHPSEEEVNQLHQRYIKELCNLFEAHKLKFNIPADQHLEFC

Compound	IC50
CS(=O)(=O)CC(=O)Nc1c2c(nn1-c1ccccn1)C[C@]1(CCc3cc(F)cc(F)c31)NC2=O [Compound I-175]	86 nM
Cc1cc(C(=O)Nc2c3c(nn2CCC2CC2)C[C@]2(CCc4cc(OCC(F)(F)F)ccc42)NC3=O)no1 [Compound I-176]	180 nM
O=C1N[C@@]2(CCc3cc(OCC(F)(F)F)ccc32)Cc2nn(CCC3CC3)c(NC(=O)c3onc4ccccc34)c21 [Compound I-177]	610 nM
CS(=O)(=O)CC(=O)Nc1c2c(nn1CCC1CC1)C[C@]1(CCc3cc(F)cc(F)c31)NC2=O [Compound I-178]	39 nM
Cc1cccc(-n2nc3c(c2NC(=O)CS(C)(=O)=O)C(=O)N[C@@]2(CCc4cc(OCCCC(F)(F)F)ccc42)C3)c1 [Compound I-179]	6.1 nM
Cc1ccccc1-n1nc2c(c1NC(=O)CS(C)(=O)=O)C(=O)N[C@@]1(CCc3cc(OCCCC(F)(F)F)ccc31)C2 [Compound I-180]	150 nM
O=C1N[C@@]2(CCc3cc(OCC(F)(F)F)ccc32)Cc2nn(CCC3CC3)c(C(=O)NS(=O)(=O)C3CC3)c21 [Compound I-181]	15 nM
CS(=O)(=O)CC(=O)Nc1c2c(nn1-c1ccc(F)cc1)C[C@]1(CCOc3cc(OCC(F)(F)F)ccc31)NC2=O [Compound I-182]	2.5 nM
O=C1N[C@@]2(CCc3cc(OCC(F)(F)F)ccc32)Cc2nn(CCC3CC3)c(NC(=O)C3CS(=O)(=O)C3)c21 [Compound I-183]	18 nM
O=C1N[C@@]2(CCc3cc(OCC(F)(F)F)ccc32)Cc2nn(CCC3CC3)c(NC(=O)C3CC(F)(F)C3)c21 [Compound I-184]	68 nM
CS(=O)(=O)CC(=O)Nc1c2c(nn1-c1ccccn1)C[C@]1(CCc3cc(OCC(F)(F)F)cc(F)c31)NC2=O [Compound I-185]	6.3 nM
O=C1N[C@@]2(CCc3cc(OCC(F)(F)F)ccc32)Cc2nn(CCC3CC3)c(-c3noc(=O)[nH]3)c21 [Compound I-186]	7.6 nM
O=C1N[C@@]2(CCc3cc(OCC(F)(F)F)ccc32)Cc2nn(CCC3CC3)c(C(=O)O)c21 [Compound I-187]	190 nM
CS(=O)(=O)CC(=O)Nc1c2c(nn1-c1ccncn1)C[C@]1(CCc3cc(OCC(F)(F)F)ccc31)NC2=O [Compound I-188]	52 nM
CS(=O)(=O)CC(=O)Nc1c2c(nn1-c1ccc(C(F)(F)F)cn1)C[C@]1(CCc3cc(OCC(F)(F)F)ccc31)NC2=O [Compound I-189]	1.2 nM
CS(=O)(=O)CC(=O)Nc1c2c(nn1CCc1ccccc1)C[C@]1(CCc3cc(OCC(F)(F)F)ccc31)NC2=O [Compound I-191]	28 nM
CS(=O)(=O)CC(=O)Nc1c2c(nn1Cc1nc(C(F)(F)F)cs1)C[C@]1(CCc3cc(OCC(F)(F)F)ccc31)NC2=O [Compound I-192]	6.5 nM
CS(=O)(=O)CC(=O)Nc1c2c(nn1CCCC(F)(F)F)C[C@]1(CCc3cc(OCC(F)(F)F)ccc31)NC2=O [Compound I-193]	6.1 nM
CCS(=O)(=O)NCc1c2c(nn1CCC1CC1)C[C@]1(CCc3cc(OCC(F)(F)F)ccc31)NC2=O [Compound I-194]	460 nM
O=C1N[C@@]2(CCc3cc(OCC(F)(F)F)ccc32)Cc2nn(CCC3CC3)c(CNS(=O)(=O)C3CC3)c21 [Compound I-195]	450 nM
O=C1N[C@@]2(CCc3cc(OCC(F)(F)F)ccc32)Cc2nn(CCC3CC3)c(C(=O)Nc3ccccc3)c21 [Compound I-196]	1000 nM
CC(C)(O)c1ccc(-n2nc3c(c2NC(=O)CS(C)(=O)=O)C(=O)N[C@@]2(CCc4cc(OCCCC(F)(F)F)ccc42)C3)cc1 [Compound I-197]	24 nM
CS(=O)(=O)CC(=O)Nc1c2c(nn1CCC1CC1)C[C@]1(CCc3cc(NC(=O)CC(F)(F)F)ccc31)NC2=O [Compound I-198]	67 nM
O=C(Nc1c2c(nn1CCC1CC1)C[C@]1(CCc3cc(OCC(F)(F)F)ccc31)NC2=O)c1ccncn1 [Compound I-199]	400 nM
CS(=O)(=O)CC(=O)Nc1c2c(nn1CCC1CC1)C[C@]1(CCc3cc(N4CC(F)(F)C4)cc(F)c31)NC2=O [Compound I-202]	6.2 nM
CS(=O)(=O)CC(=O)Nc1c2c(nn1-c1ccc(F)cn1)C[C@]1(CCc3cc(OCC(F)(F)F)ccc31)NC2=O [Compound I-203]	2.6 nM
CS(=O)(=O)CC(=O)Nc1c2c(nn1CCC1CC1)C[C@]1(CCc3cc(N4CC(F)(F)C4)ccc31)NC2=O [Compound I-204]	11.3 nM

More lines, now with the values ahead:

IC50	Compound
270 nM	CS(=O)(=O)CC(=O)Nc1c2c(nn1CC1CCOCC1)C[C@]1(CCc3cc(OCCCC(F)(F)F)ccc31)NC2=O [Compound I-205]
2.4 nM	CS(=O)(=O)CC(=O)Nc1c2c(nn1CCCC(F)(F)F)C[C@]1(CCc3cc(OCCCC(F)(F)F)ccc31)NC2=O [Compound I-206]
17.5 nM	CS(=O)(=O)CC(=O)Nc1c2c(nn1CCCC#N)C[C@]1(CCc3cc(OCCCC(F)(F)F)ccc31)NC2=O [Compound I-207]
250 nM	CS(=O)(=O)CC(=O)Nc1nn(CCCC(F)(F)F)c2c1C(=O)N[C@@]1(CCc3cc(OCCCC(F)(F)F)ccc31)C2 [Compound I-208]
3.2 nM	CS(=O)(=O)CC(=O)Nc1c2c(nn1Cc1nc(C(F)(F)F)cs1)C[C@]1(CCc3cc(OCCCC(F)(F)F)ccc31)NC2=O [Compound I-209]
550 nM	CS(=O)(=O)CC(=O)Nc1nn(Cc2nc(C(F)(F)F)cs2)c2c1C(=O)N[C@@]1(CCc3cc(OCCCC(F)(F)F)ccc31)C2 [Compound I-210]
2.1 nM	CS(=O)(=O)CC(=O)Nc1c2c(nn1-c1ccc(F)cn1)C[C@@]1(CCc3cc(OCC(F)(F)F)ccc31)NC2=O [Compound I-211]
43 nM	CS(=O)(=O)CC(=O)NCc1c2c(nn1CCC1CC1)C[C@]1(CCc3cc(OCC(F)(F)F)ccc31)NC2=O [Compound I-213]
460 nM	CCCC(C)n1nc2c(c1NC(=O)CS(C)(=O)=O)C(=O)N[C@@]1(CCc3cc(OCC(F)(F)F)ccc31)C2 (some centres unmarked) [Compound I-214]
420 nM	O=C(Nc1c2c(nn1CCC1CC1)C[C@]1(CCc3cc(OCC(F)(F)F)ccc31)NC2=O)c1ncccn1 [Compound I-215]
35 nM	O=C(Nc1c2c(nn1CCC1CC1)C[C@]1(CCc3cc(OCC(F)(F)F)ccc31)NC2=O)c1cncnc1 [Compound I-216]
89.5 nM	O=C(Nc1c2c(nn1CCC1CC1)C[C@]1(CCc3cc(OCC(F)(F)F)ccc31)NC2=O)c1cnccn1 [Compound I-217]
48 nM	O=C(Nc1c2c(nn1CCC1CC1)C[C@]1(CCc3cc(OCC(F)(F)F)ccc31)NC2=O)c1ccoc1 [Compound I-218]
110 nM	O=C(Nc1c2c(nn1CCC1CC1)C[C@]1(CCc3cc(OCC(F)(F)F)ccc31)NC2=O)c1csnn1 [Compound I-219]
35 nM	O=C(Nc1c2c(nn1CCC1CC1)C[C@]1(CCc3cc(OCC(F)(F)F)ccc31)NC2=O)c1ccco1 [Compound I-220]
60 nM	Cc1nnsc1C(=O)Nc1c2c(nn1CCC1CC1)C[C@]1(CCc3cc(OCC(F)(F)F)ccc31)NC2=O [Compound I-221]
88 nM	O=C(Nc1c2c(nn1CCC1CC1)C[C@]1(CCc3cc(OCC(F)(F)F)ccc31)NC2=O)c1cscn1 [Compound I-222]
140 nM	Cn1nccc1C(=O)Nc1c2c(nn1CCC1CC1)C[C@]1(CCc3cc(OCC(F)(F)F)ccc31)NC2=O [Compound I-223]

IC50	Compound
310 nM	Cc1oncc1C(=O)Nc1c2c(nn1CCC1CC1)C[C@]1(CCc3cc(OCC(F)(F)F)ccc31)NC2=O [Compound I-224]
40 nM	O=C(Nc1c2c(nn1CCC1CC1)C[C@]1(CCc3cc(OCC(F)(F)F)ccc31)NC2=O)c1ncco1 [Compound I-225]
90 nM	Cc1cnoc1C(=O)Nc1c2c(nn1CCC1CC1)C[C@]1(CCc3cc(OCC(F)(F)F)ccc31)NC2=O [Compound I-226]
370 nM	Cc1cc(C(=O)Nc2c3c(nn2CCC2CC2)C[C@]2(CCc4cc(OCC(F)(F)F)ccc42)NC3=O)ns1 [Compound I-227]
28 nM	O=C(Nc1c2c(nn1CCC1CC1)C[C@]1(CCc3cc(OCC(F)(F)F)ccc31)NC2=O)c1cncs1 [Compound I-228]
620 nM	Cc1cc(C(=O)Nc2c3c(nn2CCC2CC2)C[C@]2(CCc4cc(OCC(F)(F)F)ccc42)NC3=O)n(C)n1 [Compound I-229]
210 nM	Cc1ncc(C(=O)Nc2c3c(nn2CCC2CC2)C[C@]2(CCc4cc(OCC(F)(F)F)ccc42)NC3=O)s1 [Compound I-230]
47.5 nM	O=C(Nc1c2c(nn1CCC1CC1)C[C@]1(CCc3cc(OCC(F)(F)F)ccc31)NC2=O)c1cocn1 [Compound I-231]
270 nM	Cn1ccc(C(=O)Nc2c3c(nn2CCC2CC2)C[C@]2(CCc4cc(OCC(F)(F)F)ccc42)NC3=O)n1 [Compound I-232]
11 nM	C=C(C)c1ccc(-n2nc3c(c2NC(=O)CS(C)(=O)=O)C(=O)N[C@@]2(CCc4cc(OCC(F)(F)F)ccc42)C3)nc1 [Compound I-233]
9.8 nM	CS(=O)(=O)CC(=O)Nc1c2c(nn1CCC1CC1)C[C@]1(CCc3cc(N4CC(C(F)(F)F)C4)ccc31)NC2=O [Compound I-234]
85 nM	CS(=O)(=O)CC(=O)Nc1c2c(nn1CCC1CC1)C[C@]1(CCc3cc(N4CCC4)ccc31)NC2=O [Compound I-235]
16 nM	CC(C)(O)c1ccc(-n2nc3c(c2NC(=O)CS(C)(=O)=O)C(=O)N[C@@]2(CCc4cc(OCC(F)(F)F)ccc42)C3)nc1 [Compound I-237]
10 nM	CC(C)c1ccc(-n2nc3c(c2NC(=O)CS(C)(=O)=O)C(=O)N[C@@]2(CCc4cc(OCC(F)(F)F)ccc42)C3)nc1 [Compound I-238]
380 nM	CCCc1cccc(-n2nc3c(c2NC(=O)CS(C)(=O)=O)C(=O)N[C@@]2(CCc4cc(OCC(F)(F)F)ccc42)C3)c1 [Compound I-239]
1000 nM	CC(C)(O)c1cccc(-n2nc3c(c2NC(=O)CS(C)(=O)=O)C(=O)N[C@@]2(CCc4cc(OCC(F)(F)F)ccc42)C3)c1 [Compound I-240]
380 nM	O=C(NCc1c2c(nn1CCC1CC1)C[C@]1(CCc3cc(OCC(F)(F)F)ccc31)NC2=O)c1ccc(O)cc1 [Compound I-241]
